Calls of active or inactive are those of the source.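 How the source made its calls: active means compounds giving half or more protection of infected cells from virus-caused growth loss, again on retest; inactive means the rest.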 *1 amine or outer side, *2 acyl side, *3 side chain or, on linkers, in order; H or OH if unused. Where a SMILES comes first, the peptide text is derived from it. [ ]: non-standard residue; d: D form. X7 = NC(N)=NCC(O)CC(N[*:1])C(=O)[*:2]; Orn = NCCC[CH](N)C(=O)O
System: CEM cells HIV-1 protection, formazan growth assay
Experiment: NCI AIDS Antiviral Assay
Details: for IC50: measured here: growth of uninfected CEM cells
Summary of the method: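 Five concentrations of each compound were applied to infected and uninfected human CEM cells. Protection from HIV-1 was judged from growth measured with a soluble formazan assay.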

| SMILES | EC50 | IC50 | outcome |
| --- | --- | --- | --- |
| COc1cc(/C=C/c2ccnc3ccccc23)cc(OC)c1OC | > 200 µM | 1.48 µM |  |
| C=CCc1cc(-c2cc(CC=C)c(O)c(CN(CC)CC)c2)cc(CN(CC)CC)c1O | > 200 µM | 93.3 µM |  |
| CC(C)CCC[C@@H](C)[C@H]1CC[C@H]2[C@@H]3CCC4C[C@@H](CCC=C(c5cc(Cl)c(OCc6ccccc6C(=O)O)c(C(=O)O)c5)c5cc(Cl)c(OCc6ccccc6C(=O)O)c(C(=O)O)c5)CC[C@]4(C)[C@H]3CC[C@]12C (stereo partly drawn) | 44.7 µM | > 200 µM |  |
| O=C1CCC/C1=C1/SS/C(=C2/CCCC2=O)S1 | > 200 µM | 102 µM |  |
| CC(C)CCCC(C)C1CCC2[C@@H]3CCC4C[C@@H](CCCO)CC[C@]4(C)C3CC[C@]12C (stereo partly drawn) | > 4.37 µM | > 4.37 µM |  |
| FC1(F)[Se]C2C3CCC(C3)C2C1(F)F (stereo not drawn) | > 200 µM | > 200 µM |  |
| O=C1C(Cl)C(c2cccc(O)c2)N1n1cnc2ccccc2c1=O (stereo not drawn) | > 75.9 µM | > 75.9 µM |  |
| CCCCC[C@@H]1OC(=O)/C(=C2/CC[C@@H](CCCC)O2)C(=O)[C@@H]1O |  |  | inactive |
| Cc1cc(C(C)(C)C)cc(Cc2cc(C(C)(C)C)cc(Cc3cc(C(C)(C)C)cc(C)c3O)c2O)c1O | > 20 µM | > 20 µM |  |
| Cn1nc2ccccc2cc1=O | > 1550 µM | 661 µM |  |
| CCOC(=O)c1cc(C2CCN(Cc3ccccc3)C2=O)c(C(=O)/C=C(/C)N)[nH]1 (stereo not drawn) | > 200 µM | 158 µM |  |
| c1ccc2c3c([nH]c2c1)[C@H]1C2CCCCN2CN1CC3 (stereo partly drawn) | > 676 µM | 214 µM |  |
| CC(O)C(NC(=O)C(CCCN)NC(=O)C(CC(O)CN=C(N)N)NC(=O)C(N)CCCN=C(N)N)C(=O)NC(CCCN)C(=O)NC(CC(O)CN=C(N)N)C(=O)NC(Cc1ccc(O)cc1)C(=O)O (stereo not drawn) (H-R[X7][Orn]T[Orn][X7]Y-OH; configuration not given here) | > 245 µM | 174 µM |  |
| N[C@@H]1c2c(csc2Br)C(=O)[C@@H]1O | > 200 µM | 11 µM |  |
| CC1(C)COP(Oc2ccccc2)OC1 | > 200 µM | > 200 µM |  |
| CCCCCc1c2nc(c(CCCCC)c3ccc([nH]3)c(CCCCC)c3ccc([nH]3)c(CCCCC)c3nc1C=C3)C=C2 | > 200 µM | > 200 µM |  |
| CCCCCCCCCOC(=S)NCCCCC |  |  | inactive |
| CC(C)c1ccc(/C=C/c2cc(C(=O)NNC(=O)NC3CCCCC3)nc(=S)[nH]2)cc1 | > 6.17 µM | > 6.17 µM |  |
| CNC(=O)C1CCCN1C(=O)C(Cc1cnc[nH]1)NC(=O)C1CCC(=O)N1 (stereo not drawn) | > 200 µM | > 200 µM |  |
| CCCCCCCCCCCCOP(=O)(O)OP(=O)(O)OCC1OC(n2ccc(N)nc2=O)CC1O (stereo not drawn) | 57.5 µM | > 100 µM |  |
| CC1(C)Oc2ccc3c4c(c(=O)oc3c2[C@@H](OC(=O)C23CCC(C)(C(=O)O2)C3(C)C)[C@H]1OC(=O)C12CCC(C)(C(=O)O1)C2(C)C)CCCC4 (stereo partly drawn) | 0.813 µM | 12 µM |  |

| SMILES | EC50 | IC50 | outcome |
| --- | --- | --- | --- |
| CC1=C(N2CC2)C(=O)c2nc3n(c2C1=O)CCC3O (stereo not drawn) |  |  | inactive |
| CC(=O)OCC1OC(N2C(=O)NC(=O)C3C=C4CCCCC4=CC32)CC1OC(C)=O (stereo not drawn) | > 200 µM | 117 µM |  |
| CCCC1C[C@H]2CCCCN2[C@H]2CCCN12 (stereo partly drawn) | > 1120 µM | 550 µM |  |
| Nc1ccc(S(=O)(=O)NC(CSSCC(NS(=O)(=O)c2ccc(N)cc2)C(=O)O)C(=O)O)cc1 (stereo not drawn) | > 200 µM | > 200 µM |  |
| COc1ccc(NCc2cccc3c(=O)c4ccc(Cl)cc4oc23)cc1 | 3.47 µM | 25.1 µM |  |
| Cn1c2c(c3ccccc31)CCN(CCCN1CCN(c3cccc(Cl)c3)CC1)C2=O | > 16.6 µM | > 16.6 µM |  |
| CCOc1ccc(NC(=O)CC2C(=O)Nc3ccccc3S2(=O)=O)cc1 (stereo not drawn) | > 19.5 µM | > 19.5 µM |  |
| COc1ccc(O)c(/C=N/NC(=S)N2CCCCC2)c1 | > 200 µM | 8.13 µM |  |
| Cc1ccc2nc3cc(C)c(=O)cc-3sc2c1 | > 56.2 µM | 37.2 µM |  |
| Cc1ccc2c(c1)C1C(CO2)C(c2ccccc2)=NN1c1ccccc1 (stereo not drawn) | > 105 µM | > 105 µM |  |
| O=C(O)CSc1n[nH]c(=S)c2nc[nH]c12 | > 537 µM | > 537 µM |  |
| COc1ccc2c(c1)CCc1cnoc1-2 | > 178 µM | 110 µM |  |
| O=C(Cn1c(=O)oc2ccc(C(=O)c3cccc(Cl)c3)cc21)c1ccccc1 | > 200 µM | 56.2 µM |  |
| O=C(O)c1ccc2c(c1)C(=O)N(c1ccc(Oc3ccc(N4C(=O)c5ccc(C(=O)O)cc5C4=O)cc3)cc1)C2=O |  |  | inactive |
| O=C(O)c1ccsc1C(=O)c1ccccc1 | > 200 µM | > 200 µM |  |
| O=C(NC1CCC(=O)N1C(=O)OCc1ccccc1)OCc1ccccc1 (stereo not drawn) | > 200 µM | > 200 µM |  |
| Cc1ccc(/C=C2\Cc3c(C)cc(C)cc3C2=O)c(C(=O)O)c1 | > 200 µM | 85.1 µM |  |
| CCN(CC)CCCOP(=O)(OCCCN(CC)CC)OCCCN(CC)CC | 20 µM | > 200 µM |  |
| O=C(NNc1cn[nH]c(=O)c1Cl)/C(=C/c1ccc2c(c1)OCO2)NC(=O)c1ccccc1 | > 200 µM | 162 µM |  |
| Cc1csc2[n+]1C(=O)/C(=C\c1ccc([N+](=O)[O-])cc1)S2 | > 200 µM | 29.5 µM |  |
